Measurements: patent US20260070928A1, “NOVEL CRYSTALLINE FORMS OF (S)-7-OXA-2-AZA-SPIRO[4.5]DECANE-2-CARBOXYLIC ACID [7-(3,6-DIHYDRO-2H-PYRAN-4-YL)-4-METHOXY-THIAZOLO[4,5-C]PYRIDIN-2-YL]-AMIDE AND CO-CRYSTAL FORMS THEREOF” (Domain Therapeutics S.A., priority 2022, published 2026)

Tests used:
[1] = water vapour sorption isotherm (25° C.), DVS intrinsic system; hygroscopicity according to Ph. Eur. 5.11; assay type: physicochemical; details: for water uptake levels (water vapour sorption): 25° C.
Excerpt: The amorphous state can be classified as hygroscopic according to Ph. […] The water vapour sorption isotherm was acquired on a DVS intrinsic system from SMS.
Eur. criteria (section 5.11.).
The water vapour sorption isotherm was acquired on a DVS Intrinsic system from SMS.
(§1) The mono fumaric acid co-crystal form A1 is characterised by the following physical properties: • 1 eq. […] The DSC scan of mono fumaric acid co-crystal form A1 was acquired on a Mettler-Toledo DSC1 with a heating rate of 5 K/min, using nitrogen purge gas at 50 mL/min. […] Eur. criteria (section 5.11.). […] The water vapour sorption isotherm was acquired on a DVS intrinsic system from SMS. • The concentration levels of the mono fumaric acid co-crystal form A1 were determined at 37° C. after 15 min and 30 min in non-sink-dissolution experiments.
as §1, with “The hemi” for “The mono”, “form A2” for “form A1”, “• 0.5” for “• 1”, “of the hemi” for “of mono”, “Eur. Criteria” for “Eur. criteria”, “the hemi” for “the mono”

[2] = non-sink dissolution experiments in biorelevant media at 37° C.; assay type: physicochemical; details: for Dissolution levels after 15 min / Dissolution levels after 30 min: 37° C., non-sink dissolution; for dissolution behaviour in biorelevant intestinal milieu (FaSSIF) compared to crystalline entities of the free compound: comparison in words
Experimental: as §1
as §1, with “The hemi” for “The mono”, “form A2” for “form A1”, “• 0.5” for “• 1”, “of the hemi” for “of mono”, “Eur. Criteria” for “Eur. criteria”, “the hemi” for “the mono”

[3] = full relative humidity range 0-98% RH

COc1ncc(C2=CCOCC2)c2sc(NC(=O)N3CC[C@@]4(CCCOC4)C3)nc12 [crystalline anhydrous form A1, (S)-7-Oxa-2-aza-spiro[4,5]decane-2-carboxylic acid [7-(3,6-dihydro2H-pyran-4-yl)-4-methoxy-thiazolo[4,5-c]pyridin-2-yl]-amide]
hygroscopicity classification according to Ph. Eur. criteria (section 5.11.) ([1]; 25° C. water vapour sorption): Slightly hygroscopic
hygroscopicity classification according to Ph. Eur. criteria (section 5.11.) ([1]; 25° C. water vapour sorption, listed as A1 form): slightly hygroscopic
tendency to undergo hydrate formation upon exposure to elevated RH levels [1]: no tendency to undergo hydrate formation
water uptake levels (water vapour sorption) ([1]; full relative humidity range 0-98% RH, listed as A1 form): < 1 % (w/w)

COc1ncc(C2=CCOCC2)c2sc(NC(=O)N3CC[C@@]4(CCCOC4)C3)nc12 [hemi fumaric acid co-crystal form A2, (S)-7-Oxa-2-aza-spiro[4,5]decane-2-carboxylic acid [7-(3,6-dihydro2H-pyran-4-yl)-4-methoxy-thiazolo[4,5-c]pyridin-2-yl]-amide]
Dissolution levels after 15 min ([2]; FaSSIF [pH 6.5]): 317 µg/mL
Dissolution levels after 30 min ([2]; FaSSIF [pH 6.5]): 492 µg/mL
dissolution behaviour in biorelevant intestinal milieu (FaSSIF) compared to crystalline entities of the free compound [2]: improved dissolution behaviour
Dissolution levels after 15 min ([2]; FeSSIF [pH 5.0]): 651 µg/mL
Dissolution levels after 30 min ([2]; FeSSIF [pH 5.0]): 899 µg/mL
Dissolution levels after 15 min ([2]; SGF [pH 1.2]): 206 µg/mL
Dissolution levels after 30 min ([2]; SGF [pH 1.2]): 292 µg/mL
hygroscopicity classification according to Ph. Eur. criteria (section 5.11.) ([1]; 25° C. water vapour sorption): slightly hygroscopic
water uptake levels (water vapour sorption) ([1]; relative humidity range 0-80% RH): ≤ 0.7 % (w/w)

COc1ncc(C2=CCOCC2)c2sc(NC(=O)N3CC[C@@]4(CCCOC4)C3)nc12 [hemi tartaric acid co-crystal form NF2, (S)-7-Oxa-2-aza-spiro[4,5]decane-2-carboxylic acid [7-(3,6-dihydro2H-pyran-4-yl)-4-methoxy-thiazolo[4,5-c]pyridin-2-yl]-amide]
Dissolution levels after 30 min ([2]; FaSSIF [pH 6.5]): approx. 145 μg/mL

COc1ncc(C2=CCOCC2)c2sc(NC(=O)N3CC[C@@]4(CCCOC4)C3)nc12 [mono fumaric acid co-crystal form A1, (S)-7-Oxa-2-aza-spiro[4,5]decane-2-carboxylic acid [7-(3,6-dihydro2H-pyran-4-yl)-4-methoxy-thiazolo[4,5-c]pyridin-2-yl]-amide]
Dissolution levels after 15 min ([2]; FaSSIF [pH 6.5]): 278 µg/mL
Dissolution levels after 30 min ([2]; FaSSIF [pH 6.5]): 360 µg/mL
dissolution behaviour in biorelevant intestinal milieu (FaSSIF) compared to crystalline entities of the free compound [2]: improved dissolution behaviour
Dissolution levels after 15 min ([2]; FeSSIF [pH 5.0]): 375 µg/mL
Dissolution levels after 30 min ([2]; FeSSIF [pH 5.0]): 462 µg/mL
Dissolution levels after 15 min ([2]; SGF [pH 1.2]): 331 µg/mL
Dissolution levels after 30 min ([2]; SGF [pH 1.2]): 385 µg/mL
hygroscopicity classification according to Ph. Eur. criteria (section 5.11.) ([1]; 25° C. water vapour sorption): Slightly hygroscopic
tendency to undergo hydrate formation upon exposure to elevated RH levels [1]: no tendency to undergo hydrate formation
water uptake levels (water vapour sorption) [1, 3]: < 3 % (w/w)

COc1ncc(C2=CCOCC2)c2sc(NC(=O)N3CC[C@@]4(CCCOC4)C3)nc12 [mono 3-hydroxybenzoic acid co-crystal form NF1] [(S)-7-Oxa-2-aza-spiro[4,5]decane-2-carboxylic acid [7-(3,6-dihydro2H-pyran-4-yl)-4-methoxy-thiazolo[4,5-c]pyridin-2-yl]-amide]
hygroscopicity classification according to Ph. Eur. criteria (section 5.11.) ([1]; 25° C. water vapour sorption): Not hygroscopic
tendency to undergo hydrate formation upon exposure to elevated RH levels [1]: no tendency to undergo hydrate formation

COc1ncc(C2=CCOCC2)c2sc(NC(=O)N3CC[C@@]4(CCCOC4)C3)nc12 [amorphous state, (S)-7-Oxa-2-aza-spiro[4,5]decane-2-carboxylic acid [7-(3,6-dihydro2H-pyran-4-yl)-4-methoxy-thiazolo[4,5-c]pyridin-2-yl]-amide]
humidity level at which tendencies for deliquescence are shown ([1]; 25° C. water vapour sorption): > 90 % RH
hygroscopicity classification according to Ph. Eur. criteria (section 5.11.) ([1]; 25° C. water vapour sorption): hygroscopic
water uptake levels (water vapour sorption) [1, 3]: > 22 % (w/w)
